# Data reported in patent publication US20030092735A1, “Use of substance P antagonists for the treatment of chronic fatigue syndrome and/or fibromyalgia and use of NK-1 receptor antagonists for the treatment of chronic fatigue syndrome” (priority 1998, published 2003).
# Key:
# [1] = system: patients who meet the ACR criteria for primary fibromyalgia; settings: Amitryptilin regarded as an effective treatment in fibromyalgia; comparator value; cited from earlier work
# [2] = system: Patients with chronic fatigue syndrome; experiment: CFS Clinical Study (randomized, double-blind, placebo-controlled); type: in vivo, human; settings: doses of 10 to 20 mg/day, myalgias, cognitive impairment, baseline vs end of treatment
# Text: Patients with chronic fatigue syndrome according to the CDC (Centre for Disease Control) definition (G. P. Holmes et al.: A working case definition. Ann. intern. Med; 108 (1988), 387-389) are included in the trial. Other recognised definitions may be used to identify patients with chronic fatigue syndrome as appropriate. Both male and female patients are eligible, provided they are over 18 years of age and under 65 years of age. The main exclusion criteria comprise pregnant and lactating women; in addition patients suffering from other diseases that cause significant fatigue as well as patients who suffer from active infections are excluded. […]
# The study is in the form of a prospective, randomized, double-blind, placebo-controlled, parallel-group study using different doses of a Preferred A Compound of the Invention, (e.g. (2R,4S)-N-[1-(3,5-bistrifluoromethylbenzoyl)-2-(4-chlorobenzyl)-piperidin-4-yl-quinolin-4-carboxamide). […] Adverse events are assessed during the active treatment period. […]
# Other parameters which are evaluated include cognitive impairment (to be measured by visual analog scale [VAS]) and the assessment of myalgias. […] The assessment of each body region is done by the patients themselves; the total score is calculated as the sum of the regional scores. […]
# [3] = system: patients who meet the ACR criteria for primary fibromyalgia; experiment: Fibromyalgia Clinical Study (randomized, double-blind, placebo-controlled); type: in vivo, human; settings: doses of 10 to 20 mg/day; response = 35% or higher reduction in individual pain score, baseline versus end of treatment
# Text: The study is in the form of a prospective, randomized, double-blind, placebo-controlled, parallel-group study using different doses of Compound of the Invention. Male and female patients (over 18 years) who meet the ACR (American College of Rheumatology) cirteria for primary fibromyalgia are included in this trial. The main exclusion criteria include pregnant and lactating woman, patients suffering from other inflammatory rheumatological diseases (such as rheumatoid arthritis or collagenoses), severe neuropathies, clinically manifest endocrinopathies, bone diseases, severe cardial, renal or hepatic impairment and acute or chronic infections.
# Patients are randomly assigned to one of five study arms, placebo, 1 mg, 10 mg, 20 mg and 40 mg of test compound. The duration of treatment is two weeks. Before, on day 7 and at the end of the treatment phase, a physical examination, pain assessment and blood testing are performed. […] Adverse events are assessed during the active treatment period.
# To evaluate pain, the pain score, a visual analogue scale and clinical examination of tenderpoints is used. […] The assessment of each body region is done by the patients themselves; the total score is calculated as the sum of the regional scores. […]
SMILES,response rates in fibromyalgia (of patients) [1] [%],reduction in the score for one or more symptoms of CFS [2] [%],response rates for fibromyalgia treatment [3]
CN(C)CCC=C1c2ccccc2CCc2ccccc21 [Amitryptilin],20 to 30,,
"O=C(N[C@H]1CCN(C(=O)c2cc(C(F)(F)F)cc(C(F)(F)F)c2)[C@H](Cc2ccc(Cl)cc2)C1)c1ccnc2ccccc12 [(2R,4S)-N-[1-(3,5-bistrifluoromethylbenzoyl)-2-(4-chlorobenzyl)-piperidin-4-yl-quinolin-4-carboxamide]",,≥ 20,at least equivalent to or comparable with those achieved with Amitryptilin
